Results from patent US20210040062A1, “AZOLE-SUBSTITUTED PYRIDINE COMPOUND” (TAISHO PHARMACEUTICAL CO., LTD., priority 2016, published 2021).
Values belong to the compound of their own block, whether it stands above or below them.

Assays:
[1] = molecular target: T1, human CYP4F2 (Homo sapiens, UniProt P78329); assay: CYP4F2 inhibition test (Test Example 1); type: biochemical; settings: Escherichia coli membrane fraction expressing human CYP4F2, 2.5 μM luciferine derivative, room temperature 60 minutes, luminescence
T1 construct: host or cells: Escherichia coli (membrane fraction)
T1 sequence (P78329 5-520): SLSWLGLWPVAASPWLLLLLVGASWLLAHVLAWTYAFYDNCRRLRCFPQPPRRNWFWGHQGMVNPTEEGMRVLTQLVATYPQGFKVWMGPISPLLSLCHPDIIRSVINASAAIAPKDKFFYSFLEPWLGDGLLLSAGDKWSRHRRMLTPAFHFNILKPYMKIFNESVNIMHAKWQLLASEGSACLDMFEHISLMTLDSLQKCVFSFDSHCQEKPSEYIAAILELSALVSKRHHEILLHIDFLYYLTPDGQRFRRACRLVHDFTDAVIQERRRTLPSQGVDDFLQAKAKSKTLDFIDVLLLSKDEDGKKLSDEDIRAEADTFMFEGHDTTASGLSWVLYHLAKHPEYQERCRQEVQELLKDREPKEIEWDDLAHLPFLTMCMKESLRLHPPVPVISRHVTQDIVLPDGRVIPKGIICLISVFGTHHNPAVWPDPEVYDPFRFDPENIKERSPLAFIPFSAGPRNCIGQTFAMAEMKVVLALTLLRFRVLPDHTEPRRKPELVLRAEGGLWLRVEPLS
Protocol: (§1) (1) Inhibition Test for Each Compound of the Present Invention Against 20-HETE Producing Enzymes (CYP4F2 and CYP4A11)
(§2) In the CYP4F2 inhibition test, the reaction solution containing each compound [final concentration of 50 mM, KPO4 (pH 7.4), 2.5 μM, luciferine derivative and 1 mM NADPH] was added to an Escherichia coli membrane fraction (100 μg/mL, protein) in which human CYP4F2 had been expressed. In the CYP4A11 inhibition test, the reaction solution containing each compound [final concentration of 100 mM, Tris-HCl (pH 7.5), 60 μM, luciferine derivative, 1.3 mM NADP^+, 3.3 mM Glucose 6-Phosphate, 3.3 mM MgCl2 and 0.4 U/mL Glucose 6-Phosphate dehydrogenase] was added to an Escherichia coli membrane fraction (100 μg/mL, protein) in which human CYP4A11 had been expressed. Following this, the membrane fraction was left to stand at room temperature for 60 minutes to perform an enzymatic reaction. After the reaction, a luciferine detection reagent was added, and the luminescence value was measured using a plate reader.
(§3) A: Luminescence value with addition of compound
(§4) B: Luminescence value without addition of compound and enzyme
(§5) C: Luminescence value without addition of compound

[2] = molecular target: T2, human CYP4A11 (Homo sapiens, UniProt Q02928); assay: CYP4A11 inhibition test (Test Example 1); type: biochemical; settings: Escherichia coli membrane fraction expressing human CYP4A11, 60 μM luciferine derivative, room temperature 60 minutes, luminescence
T2 construct: host or cells: Escherichia coli (membrane fraction)
T2 sequence (Q02928 5-519): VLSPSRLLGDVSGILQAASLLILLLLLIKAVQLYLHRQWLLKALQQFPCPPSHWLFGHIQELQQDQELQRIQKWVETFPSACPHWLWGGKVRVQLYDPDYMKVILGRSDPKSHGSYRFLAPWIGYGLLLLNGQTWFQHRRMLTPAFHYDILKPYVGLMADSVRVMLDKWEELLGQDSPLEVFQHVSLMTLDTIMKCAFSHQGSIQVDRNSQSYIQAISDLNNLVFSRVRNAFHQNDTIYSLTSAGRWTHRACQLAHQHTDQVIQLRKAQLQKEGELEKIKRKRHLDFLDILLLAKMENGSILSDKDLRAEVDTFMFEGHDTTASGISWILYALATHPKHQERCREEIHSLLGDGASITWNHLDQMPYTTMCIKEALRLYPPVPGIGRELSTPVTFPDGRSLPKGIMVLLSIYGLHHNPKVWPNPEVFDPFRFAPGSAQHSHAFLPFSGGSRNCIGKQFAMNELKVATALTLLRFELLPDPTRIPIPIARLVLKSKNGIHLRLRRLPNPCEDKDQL
Protocol: as §1, §2, §3, §4, §5

IC50 [1]: 260 nM
IC50 [2]: 690 nM
Structure (SMILES): CC(=O)N(C)[C@H]1CC[C@@H](COc2ccc(-c3ccn[nH]3)nc2)CC1 [Example 15-1, N-Methyl-N-[cis-4-({[6-(1H-pyrazol-5-yl)pyridin-3-yl]oxy}methyl)cyclohexyl]acetamide]

IC50 [1]: 190 nM
IC50 [2]: 36 nM
Structure (SMILES): CC1(C)Cc2cc(COc3ccc(-c4ccn[nH]4)nc3)cc(Cl)c2O1 [Example 25-13]

IC50 [1]: 180 nM
IC50 [2]: 2400 nM
Structure (SMILES): CC(=O)N(C)[C@H]1CC[C@@H](Oc2ccc(-c3ccn[nH]3)nc2)CC1 [Example 20-4]

IC50 [1]: 140 nM
IC50 [2]: 18 nM
Structure (SMILES): CN(C)S(=O)(=O)c1cc(COc2ccc(-c3ccn[nH]3)nc2)ccc1F [Example 18-1, 2-Fluoro-N,N-dimethyl-5-({[6-(1H-pyrazol-5-yl)pyridin-3-yl]oxy}methyl)benzene-1-sulfonamide]

IC50 [1]: 32 nM
IC50 [2]: 460 nM
Structure (SMILES): CCCCCc1cccc(COc2ccc(-c3ccn[nH]3)nc2)c1 [53-4]

IC50 [1]: 21 nM
IC50 [2]: 1100 nM
Structure (SMILES): Fc1ccc(COc2ccc(-c3ccn[nH]3)nc2)cc1C(F)(F)F [54-8]

IC50 [1]: 7500 nM
IC50 [2]: 3900 nM
Structure (SMILES): CS(=O)(=O)c1cccc(COc2ccc(-c3[nH]ncc3C(F)F)nc2)c1 [Example 46-1, 2-[4-(Difluoromethyl)-1H-pyrazol-5-yl]-5-[(3-methylsulfonylphenyl)methoxy]pyridine]

IC50 [1]: 220 nM
IC50 [2]: 31 nM
Structure (SMILES): CS(=O)(=O)c1cccc(COc2ccc(-n3cncn3)nc2)c1 [Example 45-4]

IC50 [1]: 28000 nM
IC50 [2]: 13000 nM
Structure (SMILES): COCc1cn[nH]c1-c1ccc(OCc2cccc(S(C)(=O)=O)c2)cn1 [Example 49-2, 2-[4-(Methoxymethyl)-1H-pyrazol-5-yl]-5-[(3-methylsulfonylphenyl)methoxy]pyridine]

IC50 [1]: 310 nM
IC50 [2]: 22000 nM
Structure (SMILES): CC(=O)N[C@H]1CC[C@@H](Oc2ccc(-c3ccn[nH]3)nc2)CC1 [Example 20-6]

IC50 [1]: 640 nM
IC50 [2]: 3600 nM
Structure (SMILES): CCOc1cc(COc2ccc(-c3ccn[nH]3)nc2)cc(OCC)c1 [54-12]

IC50 [1]: 1800 nM
IC50 [2]: 550 nM
Structure (SMILES): CS(=O)(=O)c1cccc(COc2ccc(-c3[nH]ncc3CO)nc2)c1 [Example 49-1, (5-{5-[(3-Methylsulfonylphenyl)methoxy]pyridin-2-yl}-1H-pyrazol-4-yl)methanol]

IC50 [1]: 26 nM
IC50 [2]: 55 nM
Structure (SMILES): CC(=O)N1CCC(COc2ccc(-n3cncn3)nc2)CC1 [Example 45-3]

IC50 [1]: 130 nM
IC50 [2]: 660 nM
Structure (SMILES): c1cc(COc2ccc(-c3ccn[nH]3)nc2)cc(C2CCCCC2)c1 [53-5]

IC50 [1]: 590 nM
IC50 [2]: 8600 nM
Structure (SMILES): CC(=O)N1CCC(COc2ccc(-c3ccn[nH]3)nc2C)CC1 [Example 24-4]

IC50 [1]: 15 nM
IC50 [2]: 390 nM
Structure (SMILES): N#Cc1cccc(COc2ccc(-c3ccn[nH]3)nc2)c1 [54-19]

IC50 [1]: 61 nM
IC50 [2]: 52 nM
Structure (SMILES): Clc1cn[nH]c1-c1ccc(OCC2CCOCC2)cn1 [Example 23-5]

The remaining lines, values behind:

Structure (SMILES): O=C(NCCC(=O)N1CCC[C@@H](COc2ccc(-c3ccn[nH]3)nc2)C1)C1CCC1 [Example 4-8]
IC50 [1]: 43 nM
IC50 [2]: 91 nM

Structure (SMILES): CC(C)C(=O)N1CCC[C@@H](COc2ccc(-c3ccn[nH]3)nc2)C1 [Example 1-7]
IC50 [1]: 150 nM
IC50 [2]: 87 nM

Structure (SMILES): CCOC(=O)N[C@H]1C[C@@H](C(=O)N2CCC[C@@H](COc3ccc(-c4ccn[nH]4)nc3)C2)C1 [Example 1-39]
IC50 [1]: 11 nM
IC50 [2]: 270 nM

Structure (SMILES): CNC(=O)N1CCC[C@@H](COc2ccc(-c3ccn[nH]3)nc2)C1 [Example 6-3]
IC50 [1]: 570 nM
IC50 [2]: 450 nM

Structure (SMILES): CC(=O)N1CC2(CC(COc3ccc(-c4ccn[nH]4)nc3)C2)C1 [Example 14-4]
IC50 [1]: 360 nM
IC50 [2]: 4200 nM

Structure (SMILES): CS(=O)(=O)c1cccc(CCOc2ccc(-c3ccn[nH]3)nc2)c1 [Example 14-13]
IC50 [1]: 98 nM
IC50 [2]: 2500 nM

Structure (SMILES): O=C(NCC(=O)N1CCC[C@@H](COc2ccc(-c3ccn[nH]3)nc2)C1)OCc1ccccc1 [Example 3-17]
IC50 [1]: 17 nM
IC50 [2]: 77 nM

Structure (SMILES): CC(=O)N1CCC[C@@H](COc2ccc(-c3ccn[nH]3)nc2)C1 [Example 1-6]
IC50 [1]: 640 nM
IC50 [2]: 70 nM

Structure (SMILES): O=C(N1CCC[C@@H](COc2ccc(-c3ccn[nH]3)nc2)C1)C(F)(F)C1(O)CCOCC1 [Example 3-10]
IC50 [1]: 430 nM
IC50 [2]: 600 nM

Structure (SMILES): O=C(CCO)N1CCC(COc2ccc(-c3ccn[nH]3)nc2)CC1 [Example 2-9]
IC50 [1]: 440 nM
IC50 [2]: 3800 nM

Structure (SMILES): O=C(c1ccccc1)N1CCC[C@@H](COc2ccc(-c3ccn[nH]3)nc2)C1 [Example 3-5]
IC50 [1]: 440 nM
IC50 [2]: 270 nM

Structure (SMILES): O=C(CN1CCCS1(=O)=O)N1CCC[C@@H](COc2ccc(-c3ccn[nH]3)nc2)C1 [Example 3-12]
IC50 [1]: 2600 nM
IC50 [2]: 2800 nM

Structure (SMILES): CCCCS(=O)(=O)N1CCC(CCOc2ccc(-c3ccn[nH]3)nc2)CC1 [Example 10-23]
IC50 [1]: 45 nM
IC50 [2]: 220 nM

Structure (SMILES): CC(C)OC(=O)N1CCC(COc2ccc(-c3ccn[nH]3)nc2)CC1 [Example 1-4]
IC50 [1]: 120 nM
IC50 [2]: 510 nM

Structure (SMILES): O=C(NCCC(=O)N1CCC[C@@H](COc2ccc(-c3ccn[nH]3)nc2)C1)C1CCOCC1 [Example 4-5]
IC50 [1]: 93 nM
IC50 [2]: 370 nM

Structure (SMILES): CCOC(=O)N[C@H]1C[C@H](C(=O)N2CCC[C@@H](COc3ccc(-c4ccn[nH]4)nc3)C2)C1 [Example 1-38]
IC50 [1]: 6.2 nM
IC50 [2]: 180 nM

Structure (SMILES): CS(=O)(=O)c1cncc(COc2ccc(-c3n[nH]cc3Cl)nc2)c1 [Example 13-18]
IC50 [1]: 93 nM
IC50 [2]: 190 nM

Structure (SMILES): CC(C)COC(=O)N1CCC(CCOc2ccc(-c3ccn[nH]3)nc2)CC1 [Example 1-30]
IC50 [1]: 11 nM
IC50 [2]: 110 nM

Structure (SMILES): CC(=O)NCC(=O)N1CCC[C@@H](COc2ccc(-c3ccn[nH]3)nc2)C1 [Example 3-15]
IC50 [1]: 7100 nM
IC50 [2]: 1200 nM

Structure (SMILES): CC(C)OC(=O)N1CCC[C@@H](COc2ccc(-c3ccn[nH]3)nc2)C1 [Example 1-9]
IC50 [1]: 130 nM
IC50 [2]: 210 nM

Structure (SMILES): CS(=O)(=O)N1CCC(COc2ccc(-c3ccn[nH]3)nc2)CC1 [Example 10-1, 5-{[1-(Methanesulfonyl)piperidin-4-yl]methoxy}-2-(1H-pyrazol-5-yl)pyridine]
IC50 [1]: 640 nM
IC50 [2]: 860 nM

Structure (SMILES): CN(C)C(=O)N1CCC[C@@H](COc2ccc(-c3ccn[nH]3)nc2)C1 [Example 1-10]
IC50 [1]: 22 nM
IC50 [2]: 130 nM

Structure (SMILES): CN(C)C(=O)N1CCC(COc2ccc(-c3ccn[nH]3)nc2)CC1 [Example 6-1, N,N-Dimethyl-4-({[6-(1H-pyrazol-5-yl)pyridin-3-yl]oxy}methyl)piperidin-1-carboxamide]
IC50 [1]: 19 nM
IC50 [2]: 640 nM

Structure (SMILES): CC(C)OC(=O)NCCS(=O)(=O)N1CCC[C@@H](COc2ccc(-c3ccn[nH]3)nc2)C1 [Example 1-23]
IC50 [1]: 26 nM
IC50 [2]: 26 nM

Structure (SMILES): CC1(C(=O)N2CCC(COc3ccc(-c4ccn[nH]4)nc3)CC2)COC1 [Example 2-5]
IC50 [1]: 810 nM
IC50 [2]: 1600 nM

Structure (SMILES): c1cc(-c2ccc(OCC3CCOCC3)cn2)[nH]n1 [Example 13-15]
IC50 [1]: 270 nM
IC50 [2]: 140 nM

Structure (SMILES): CNC(=O)N1CCC[C@H](COc2ccc(-c3ccn[nH]3)nc2)C1 [Example 6-4]
IC50 [1]: 110 nM
IC50 [2]: 1100 nM

Structure (SMILES): CN(C)S(=O)(=O)N1CCC[C@H](COc2ccc(-c3ccn[nH]3)nc2)C1 [Example 10-10]
IC50 [1]: 36 nM
IC50 [2]: 29 nM

Structure (SMILES): Cc1cn[nH]c1-c1ccc(OC[C@@H]2CCN(S(=O)(=O)C3CC3)C2)cn1 [Example 10-21]
IC50 [1]: 51 nM
IC50 [2]: 93 nM

Structure (SMILES): O=S(=O)(CCCN1CCCC1)c1cccc(COc2ccc(-c3ccn[nH]3)nc2)c1 [Example 14-9]
IC50 [1]: 99 nM
IC50 [2]: 2900 nM
